Counter-ions that a name gives are not always drawn.
Columns and labels:
[1] = test system: NF-κB; assay: Nuclear translocation of NF-κB (Western blotting of p65 and p50); format: cell-based
Description: Electrophoretic mobility shift assay (EMSA): Nuclear extracts were prepared by the method of Schreiber, et al (Schreiber, E., Matthias, P., Muller, M. M. and Schaffner, W. (1989) Nucleic Acids Res. 17, 6419). Briefly, cells were solubilized with a buffer (10 mM HEPES-NaOH, pH 7.9, 10 mM KCl, 0.1 mM EDTA, 0.1 mM EGTA, 0.4% NP-40, 0.5 mM PMSF, 1 μg/ml aprotinin, 1 μg/ml leupeptin, 1 μg/ml pepstatin, 1 mM DTT), and then centrifuged at 10,000 rpm for 15 min. The pellets were resuspended in a buffer (20 mM HEPES-NaOH, pH 7.9, 400 mM NaCl, 1 mM EDTA, 1 mM EGTA, 1 mM PMSF, 1 μg/ml aprotinin, 1 μg/ml leupeptin, 1 μg/ml pepstatin, 1 μg/ml chymostatin, 1 μg/ml antipain, 1 mM DTT), and then centrifuged at 15,000 rpm for 15 min. […] The samples were electrophoresed on an 8% polyacrylamide gel and analyzed by an Imaging plate (Fuji Film). […]
In order to find out the mechanism of NF-κB suppression by cPrG-HCl, the effect on the signal transduction system, which functions upstream of NF-κB, was analyzed. […] Next, the effect of cPrG-HCl on phosphorylation and degradation of IκB was analyzed by Western blotting using anti-IκB antibody (FIG. 2E). […] Accordingly, nuclear translocation of NF-κB was analyzed by Western blotting using p65 and p50 which are components of NF-κB (FIG. 2F). […] Further, the state of NF-κB activation in the nucleus was analyzed by EMSA (electrophoretic mobility shift assay) (FIG. 2G). […]

[2] = test system: CMV promoter; assay: CMV promoter-dependent luciferase gene expression (control); format: cell-based; conditions: FIG. 2B
Description: Luciferase gene reporter assay and Kinase assays of IKK: HeLa cells were transfected with the reporter plasmids described above using Lipofectin (GIBCO BRL). After 24-48 hr, the luciferase activity was determined using the Luciferase Assay System (Promega). The kinase activity of IKKα and IKKβ were analyzed by immune complex kinase assay as described previously (Oka, S., Kamata, H., Kamata, K., Yagisawa, H. and Hirata, H. (2000) FEBS Lett. 472, 196-202). The substrates was using GST-IκBα(1-55) or GST-p65(399-551).

Structure (SMILES): COC1=CC(c2ccc[nH]2)=N/C1=C\c1[nH]c(C)c2c1C(C)CCC2 (stereo not drawn) [cPrG-HCl, Cycloprodigiosin hydrochloride]
- nuclear translocation of NF-κB ([1]; PMA stimulation, FIG. 3B): inhibited neither
- nuclear translocation of NF-κB ([1]; TNFα stimulation, FIG. 2F): not inhibited
- expression of the CMV promoter-dependent luciferase gene [2]: did not inhibit

Reference: patent publication US20040048791A1, “Method for treating neoplastic cells using cycloprodigiosin or salt thereof” (priority 2002, published 2004)
